Our source for the IC50 values is patent publication US20240109918A1, “HETEROCYCLIC COMPOUNDS AND USES THEREOF” (Kumquat Biosciences Inc., priority 2022, published 2024).

One assay has as its target T1, KRASwt (Homo sapiens, UniProt P01116).
T1 construct: made in house; host or cells: E. coli BL21 (DE3)
Nature of the assay: Bio-Biochem-PPI-HTRF Ras-SOS1 interaction assay (KRAS wt). The note with it: 5 nM. Type of assay: biochemical. The method in brief: (§1)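 HTRF measurement of GST-K-Ras (wt or G12D) binding to His-hSOS1, via anti-GST-Eu(K) donor and anti-6His-XL665 acceptor, in HEPES pH 7.4 buffer with NaCl, DTT, BSA and Igepal. Read after ≥10 min; compounds in duplicate from 10 μM down to 0.01 μM. IC50 from 665/620 nm ratio.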

For another assay, the target named is T2, KRASG12D (Homo sapiens, UniProt P01116, G12D).
T2 construct: made in house; host or cells: E. coli BL21 (DE3)
T2 sequence (P01116 1-188 isoform P01116-2 G12D): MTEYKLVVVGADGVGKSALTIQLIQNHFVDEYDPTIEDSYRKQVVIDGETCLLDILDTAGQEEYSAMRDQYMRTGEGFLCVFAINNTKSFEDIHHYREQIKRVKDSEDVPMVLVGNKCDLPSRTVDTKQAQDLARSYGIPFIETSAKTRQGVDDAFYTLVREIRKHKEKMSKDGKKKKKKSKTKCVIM
Nature of the assay: Bio-Biochem-PPI-HTRF Ras-SOS1 interaction assay (KRAS G12D). The following applies: 5 nM. The format is biochemical. The method in brief: as §1

pIC50: −log10 of the molar value.

T1 sequence (P01116 1-188 isoform P01116-2): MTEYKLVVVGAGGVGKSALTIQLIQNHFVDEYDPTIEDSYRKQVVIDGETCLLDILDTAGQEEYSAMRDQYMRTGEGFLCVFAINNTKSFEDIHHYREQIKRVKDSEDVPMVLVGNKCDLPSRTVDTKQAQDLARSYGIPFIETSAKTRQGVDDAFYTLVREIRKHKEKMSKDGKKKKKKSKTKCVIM

For the compound `N#Cc1c(N)sc2c(F)ccc(-c3c(Cl)cc4c(N5CCCCC6(CN(C(=O)C7(C(F)F)COC7)C6)C5)nc(OC[C@@]56CCCN5C[C@H](F)C6)nc4c3F)c12` [compound 340, 2-amino-4-(6-chloro-4-(2-(3-(difluoromethyl)oxetane-3-carbonyl)-2,6-diazaspiro[3.6]decan-6-yl)-8-fluoro-2-(((2R,7aS)-2-fluorotetrahydro-1H-pyrrolizin-7a(5H)-yl)methoxy)quinazolin-7-yl)-7-fluorobenzo[b]thiophene-3-carbonitrile], the negative logarithm of the IC50 (pIC50) against KRASwt and against KRASG12D was above 5.30 each time.
Take `N#Cc1c(N)sc2c(F)ccc(-c3c(Cl)cc4c(N5CCCCC6(CN(C(=O)c7ccnn7CCC(F)F)C6)C5)nc(OC[C@@]56CCCN5C[C@H](F)C6)nc4c3F)c12` [compound 341, 2-amino-4-(6-chloro-4-(2-(1-(3,3-difluoropropyl)-1H-pyrazole-5-carbonyl)-2,6-diazaspiro[3.6]decan-6-yl)-8-fluoro-2-(((2R,7aS)-2-fluorotetrahydro-1H-pyrrolizin-7a(5H)-yl)methoxy)quinazolin-7-yl)-7-fluorobenzo[b]thiophene-3-carbonitrile]: the pIC50 at KRASwt and against KRASG12D was above 5.30 each time.
As for `N#Cc1c(N)sc2c(F)ccc(-c3c(Cl)cc4c(N5CCC(F)(F)CC6(CN(C(=O)[C@@H]7C[C@H]7C#N)C6)C5)nc(OC[C@@]56CCCN5C[C@H](F)C6)nc4c3F)c12` [compound 342, 2-amino-4-(6-chloro-4-(2-((1R,2R)-2-cyanocyclopropane-1-carbonyl)-9,9-difluoro-2,6-diazaspiro[3.6]decan-6-yl)-8-fluoro-2-(((2R,7aS)-2-fluorotetrahydro-1H-pyrrolizin-7a(5H)-yl)methoxy)quinazolin-7-yl)-7-fluorobenzo[b]thiophene-3-carbonitrile], the negative-log IC50 (pIC50) at KRASwt and on KRASG12D was above 5.30 throughout.
Take `Cn1nc(C(F)F)cc1C(=O)N1CC2(CCCCN(c3nc(OC[C@@]45CCCN4C[C@H](F)C5)nc4c(F)c(-c5ccc(F)c6sc(N)c(C#N)c56)c(Cl)cc34)C2)C1` [compound 343, 2-amino-4-(6-chloro-4-(2-(3-(difluoromethyl)-1-methyl-1H-pyrazole-5-carbonyl)-2,6-diazaspiro[3.6]decan-6-yl)-8-fluoro-2-(((2R,7aS)-2-fluorotetrahydro-1H-pyrrolizin-7a(5H)-yl)methoxy)quinazolin-7-yl)-7-fluorobenzo[b]thiophene-3-carbonitrile]: the negative-log IC50 (pIC50) against KRASwt and against KRASG12D was above 5.30 throughout.
`C#Cc1c(F)ccc2cc(O)cc(-c3ncc4c(N5CCCCC6(CN(C(=O)C(F)F)C6)C5)nc(OC[C@@]56CCCN5C[C@H](F)C6)nc4c3F)c12` [compound 344, 1-(6-(7-(8-ethynyl-7-fluoro-3-hydroxynaphthalen-1-yl)-8-fluoro-2-(((2R,7aS)-2-fluorotetrahydro-1H-pyrrolizin-7a(5H)-yl)methoxy)pyrido [4,3-d]pyrimidin-4-yl)-2,6-diazaspiro[3.6]decan-2-yl)-2,2-difluoroethan-1-one]: the pIC50 at KRASwt and against KRASG12D was above 5.30 throughout.
Take `N#Cc1c(N)sc2c(F)ccc(-c3c(Cl)cc4c(N5CCCCC6(CN(C(=O)C7CCC7C#N)C6)C5)nc(OC[C@@]56CCCN5C[C@H](F)C6)nc4c3F)c12` (stereo partly drawn) [compound 345, 2-amino-4-(6-chloro-4-(2-(2-cyanocyclobutane-1-carbonyl)-2,6-diazaspiro[3.6]decan-6-yl)-8-fluoro-2-(((2R,7aS)-2-fluorotetrahydro-1H-pyrrolizin-7a(5H)-yl)methoxy)quinazolin-7-yl)-7-fluorobenzo[b]thiophene-3-carbonitrile]: the pIC50 at KRASwt and at KRASG12D was above 5.30 each time.
In the case of `N#Cc1c(N)sc2c(F)ccc(-c3c(Cl)cc4c(N5CCN(CC6CC6)C6(CN(C(=O)C(F)F)C6)C5)nc(OC[C@@]56CCCN5C[C@H](F)C6)nc4c3F)c12` [compound 346, 2-amino-4-(6-chloro-4-(5-(cyclopropylmethyl)-2-(2,2-difluoroacetyl)-2,5,8-triazaspiro[3.5]nonan-8-yl)-8-fluoro-2-(((2R,7aS)-2-fluorotetrahydro-1H-pyrrolizin-7a(5H)-yl)methoxy)quinazolin-7-yl)-7-fluorobenzo[b]thiophene-3-carbonitrile], the negative-log IC50 (pIC50) at KRASwt and at KRASG12D was above 5.30 in each case.
For the compound `N#Cc1c(N)sc2c(F)ccc(-c3c(Cl)cc4c(N5CCCCC6(CN(C(=O)CC7CC(F)(F)C7)C6)C5)nc(OC[C@@]56CCCN5C[C@H](F)C6)nc4c3F)c12` [compound 347, 2-amino-4-(6-chloro-4-(2-(2-(3,3-difluorocyclobutyl)acetyl)-2,6-diazaspiro[3.6]decan-6-yl)-8-fluoro-2-(((2R,7aS)-2-fluorotetrahydro-1H-pyrrolizin-7a(5H)-yl)methoxy)quinazolin-7-yl)-7-fluorobenzo[b]thiophene-3-carbonitrile], the pIC50 against KRASwt and against KRASG12D was above 5.30 each time.
With `Cc1c(N)sc2c(F)ccc(-c3c(Cl)cc4c(N5CCOC6(CN(C(=O)/C(C#N)=C/c7ccoc7)C6)C5)nc(OC[C@@]56CCCN5C[C@H](F)C6)nc4c3F)c12` [compound 348, (E)-2-(8-(7-(2-amino-7-fluoro-3-methylbenzo[b]thiophen-4-yl)-6-chloro-8-fluoro-2-(((2R,7aS)-2-fluorotetrahydro-1H-pyrrolizin-7a(5H)-yl)methoxy)quinazolin-4-yl)-5-oxa-2,8-diazaspiro [3.5]nonane-2-carbonyl)-3-(furan-3-yl) acrylonitrile], the negative-log IC50 (pIC50) against KRASwt and against KRASG12D was above 5.30 each time.
On to `N#Cc1c(N)sc2c(F)ccc(-c3c(Cl)cc4c(N5CCC6(CCN(C(=O)C7CC7(F)F)C6)CC5)nc(OC[C@@]56CCCN5C[C@H](F)C6)nc4c3F)c12` (stereo partly drawn) [compound 349, 2-amino-4-(6-chloro-4-(2-(2,2-difluorocyclopropane-1-carbonyl)-2,8-diazaspiro[4.5]decan-8-yl)-8-fluoro-2-(((2R,7aS)-2-fluorotetrahydro-1H-pyrrolizin-7a(5H)-yl)methoxy)quinazolin-7-yl)-7-fluorobenzo[b]thiophene-3-carbonitrile], for which the pIC50 against KRASwt and against KRASG12D was above 5.30 each time.
